Test results as given in US20210317408A1, “METHODS AND COMPOSITIONS FOR GENETICALLY MODIFYING LYMPHOCYTES IN BLOOD OR IN ENRICHED PBMCS” (Exuma Biotech Corp., priority 2018, published 2021).

B1: SMAD4: miRNA in miR-155 framework directed against SMAD4, SEQ ID NOs:406-409 (nucleic acid)
DNA 1: CGGCACCTGCGCTGCCGTTGGATCGGGGATGAAAGCTGGCGCTGGAGGCTTGCTGAAGGCTGTATGCTGAATTAGGTGTGTATGGTGCAGGTTTTGGCCACTGACTGACCTGCACCACACACCTAATTCAGGACACAAGGCCTGTTACTAGCACTCACATGGAACAAATGGCCCACATTGGTGCCGGATGAAGCTCTTATGTTGCGTCCCATCGCAGGTGCCT
DNA 2: CCTCACCTGCTTGCGTCCCATTCTGGAGGCTTGCTGAAGGCTGTATGCTGAAGTACTTCGTCTAGGAGCTGGTTTTGGCCACTGACTGACCAGCTCCTACGAAGTACTTCAGGACACAAGGCCTGTTACTAGCACTCACATGGAACAAATGGCCGTTGCCTGAGTCTTGGCAGCGAGAGATCACTAACTGCTAAGCAGGTGCTT
DNA 3: TGTCACCTGCACTAACTGCTAACTGGAGGCTTGCTGAAGGCTGTATGCTGTATCCCACGATCTACTCCCCGGTTTTGGCCACTGACTGACCGGGGAGTATCGTGGGATACAGGACACAAGGCCTGTTACTAGCACTCACATGGAACAAATGGCCGTGTTAATTGTCCATGTAGCGAGGCATCCTTATGGCGTGGGCAGGTGTCC
DNA 4: CCTTCACCTGCCTTATGGCGTGGCTGGAGGCTTGCTGAAGGCTGTATGCTGTTATGATGGTAAGTAGCTGGCGTTTTGGCCACTGACTGACGCCAGCTATACCATCATAACAGGACACAAGGCCTGTTACTAGCACTCACATGGAACAAATGGCCGGTGTCCGTTATCGGGGAAGAAGGTCGCGCACATAGCAGGTGTCC
modifications: Synthetic SMAD4 miRNA at P1; Synthetic SMAD4 miRNA at P2; Synthetic SMAD4 miRNA at P3; Synthetic SMAD4 miRNA at P4

Tests used:
[1] = tested on: unstimulated PBMCs; test: Time course of lentiviral transduction of unstimulated PBMCs, 4 hours to less than 1 minute; format: cell-based, human; conditions: 10 μM during 4 hour transduction, replenished in recovery medium
[2] = tested on: transduced human PBMCs expressing a CAR in CHO, CHO-ROR2 or CHO-AXL tumors; test: miRNA library in vivo screen: miRNA blocks recovered from tumors 20 days after dosing transduced PBMCs; parameters: species or system mouse; conditions: conclusion from miRNA constructs recovered from tumors at day 20
Text: 108 gBlocks® Gene Fragments were used to generate a library of constructs each containing 4 miRNA precursors in series in positions 1 (P1), 2 (P2), 3 (P3), and 4 (P4). Each gBlock® was specific to P1, P2, P3, or P4 and contained a miR-155 framework (SEQ ID NO:457), including a 5′arm and a 3′arm as described in Example 17 of WO 2019/055946, in which a unique miRNA fragment targeting an mRNA transcript corresponding to 1 of 27 different genes was used to replace the miR-155 stem-loop precursor. For clarity, the sequences of miRNA fragments differed for each position P1-P4 even among miRNA fragments that targeted mRNA transcripts corresponding to the same gene. The gBlocks® for each position contained a unique 40 bp overlap sequence and the type IIs assembly method was used to assemble combinations of four gBlocks® in their prescribed order, to generate the library. By these methods, a total diversity of 531,441 unique constructs (27 miRNA at P1×27 miRNA at P2×27 miRNA at P3×27 miRNA at P4) was possible.
The library of miRNA constructs was separately cloned into the EF-1 alpha intron A of F1-1-315 and F1-2-314 to generate Library 315 and Library 314, respectively. In addition to the EF-1 alpha promoter, F1-1-315 included a CD8a signal peptide, an anti-ROR2:CD28:CD3z CAR, T2A, and an eTag. […]

| Molecule | inhibition of transduction [1] | effect of knocking down the transcript on T cells in the tumor microenvironment [2] |
| --- | --- | --- |
| C[C@@H]1CCO[C@H]2Cn3cc(C(=O)NCc4ccc(F)cc4F)c(=O)c(O)c3C(=O)N12 [dolutegravir] | inhibition of transduction | – |
| Cc1cc(C)c(Nc2ccnc(Nc3ccc(C#N)cc3)n2)c(C)c1 [dapivirine] | inhibition of transduction | – |
| B1 | – | promote the survival and/or proliferation of T cells |
